Test results as given in patent US20070105181A1, “Identification of cancer biomarkers and phosphorylated pdroteins” (Invitrogen Corporation, priority 2005, published 2007).

Test system: Dok-2 phosphorylation (tyrosine 299)
Experiment: SILAC/MALDI-TOF quantitation of Dok-2 phosphopeptide in CML cells after STI571 treatment
Format: cell-based
Settings: human CML cells
Method: SILAC is a also powerful tool for quantifying posttranslational modifications. We examined the change in the level of phosphophorylation of Dok-2 in response to treatment of STI571, an inhibitor of Bcr-Abl kinase, in human chronic myelogenous leukemia cells. As a control, aliquots of heavy tyrosine (U—^13C9) labeled cells (5×10^8) were mixed equally with light tyrosine (^12C) labeled cells (5×10^8) before the drug treatment.
A first aliquot of heavy tyrosine labeled cells (5×10^8) was preincubated with 1 μM of STI571 at 37° C. for 1 h and then mixed with an equal number of light (natural abundance) isotope tyrosine labeled cells. A second aliquot of heavy tyrosine labeled cells (5×10^8) was preincubated with 1 μM of STI571 at 37° C. for 2 h and then also mixed with an equal number of light (natural abundance) isotope tyrosine labeled cells. In both cases, the cell mixtures (1×10^9) were lysed with NP40 lysis buffer and incubated with 30 μg of the GST fusion of the SH2 domain of SHIP1 conjugated to glutathione Sepharose 4B. Affinity captured proteins were then analyzed by SDS-PAGE on a NuPAGE® acrylamide gel (Invitrogen, Carlsbad, Calif.) and stained with SimplyBlue™ SafeStain™ protein gel stain (Invitrogen, Carlsbad, Calif.). The Dok-2 protein bands from each mixed cell sample were excised and digested with trypsin. The resulting tryptic peptides were analyzed by MALDI-TOF.

In the case of `Cc1ccc(NC(=O)c2ccc(CN3CCN(C)CC3)cc2)cc1Nc1nccc(-c2cccnc2)n1` [STI571], the “amount of phosphopeptide of Dok2 reduced to (peptide ratio m/z 1688 to m/z 1697)” value (1 μM STI571, 37° C., 1 h) is reported as 75%, the “inhibition of heavy labeled Dok-2 phosphopeptide (ratio of isotopic peptide pairs)” value (1 μM STI571, 37° C., 2 h) is reported as “more than 90%” and the “decrease of phosphorylation level of Dok-2 Tyrosine 299 site” value (STI571 treatment, 1 h) is reported as 75%.
